Test results taken from PubChem BioAssay (NCI).
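Five compound concentrations were applied to cells in 96-well plates for 48 hours; endpoints were derived by simple linear interpolation of the resulting dose-response curve. The concentration for 50% growth inhibition is given as GI50. TGI: concentration producing complete growth inhibition.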

Experiments:
Assay in all cases: growth of human tumour cells (NCI), 48 h
[1] = tested on: SW-620 colon
[2] = tested on: SK-MEL-2 melanoma
[3] = tested on: MDA-MB-231 breast
[4] = tested on: U251 CNS
[5] = tested on: A549 NSCLC
[6] = tested on: HOP-92 NSCLC
[7] = tested on: K-562 leukemia
[8] = tested on: KM12 colon
[9] = tested on: OVCAR-4 ovarian
[10] = tested on: SF-268 CNS

Structure (SMILES)	GI50 [1] [µM]	TGI [1] [µM]	GI50 [2] [µM]	TGI [2] [µM]	GI50 [3] [µM]	TGI [3] [µM]	GI50 [4] [µM]	TGI [4] [µM]	GI50 [5] [µM]	TGI [5] [µM]	GI50 [6] [µM]	TGI [6] [µM]	GI50 [7] [µM]	TGI [7] [µM]	GI50 [8] [µM]	TGI [8] [µM]	GI50 [9] [µM]	TGI [9] [µM]	GI50 [10] [µM]	TGI [10] [µM]
C[C@]12CC[C@@H]3c4cc(O)c(O)cc4CC[C@H]3[C@@H]1CC[C@@H]2O	2.73	> 42.5	3.23	22.2	4.61	52.5	6.86	35.1	7.16	> 82.4	3.32	29	0.499	> 100	8.23	22.3	16.2	> 100	5.81	> 83.2
O=C(/C(=C/c1ccc([N+](=O)[O-])cc1)SCc1ccc(Cl)cc1)c1ccc(F)cc1	1.71	4.91	7.9	23.1	2.14	5.98	1.74	3.17	49.5	> 100	10.2	34	2.45	> 100	2.71	8.08	3.11	13.9	4.95	21.6
N/C(=N/N=C/c1ccccc1)N/N=C\c1ccccc1	3.86	> 100	3.58	43.9	10.5	> 100	5.08	70.9	3.79	> 100	2.52	42.2	3.35	> 100	2.76	> 100	19.6	> 100	9.66	> 100
COc1ccc2c(c1)oc(=O)c1cc(OC)ccc12	> 100	> 100	> 100	> 100	> 100	> 100	> 100	> 100	> 100	> 100	> 100	> 100	> 100	> 100	> 100	> 100	> 100	> 100	> 100	> 100
CCCCCCCCC/C(=N\NC(=O)c1ccncc1)c1ccc(O)c(O)c1O	0.365	28.3	0.521	> 100	0.116	31.5	0.11	65.9	0.302	> 100	0.385	> 100	0.498	> 100	0.348	> 100	0.12	18	0.142	> 23.4
CN(C)CCCCC(C(=O)CBr)(c1ccccc1)c1ccccc1	1.67	5.58	2.18	6.02	1.89	4.49	3.07	11.5	4.93	18.8	1.84	4.71	2.08	5.48	7.57	20.7	1.54	7.88	3.89	15.8
c1ccc2cc(NCNc3ccc4ccccc4c3)ccc2c1		> 100		32.1		38.9		93.6		47.5		26.6		38.8		38.7		26.6		> 100
COc1cc(C(=O)N2CCN(c3ccccc3)CC2)c2ccccc2n1	0.0526	> 100	0.432	> 100	0.301	> 25.2	0.0955	> 100	0.101	> 100	1.47	29.2	0.0782	> 100	0.0412	5.19	4.27	> 100	0.2	> 100
C[C@]12CC[C@@H]3c4cc(OC(F)F)c(OS(N)(=O)=O)cc4CC[C@H]3[C@@H]1CC[C@@H]2OS(N)(=O)=O	0.439	20.7	2.79	24.9	3.05	28.2	1.83	20.2	2.52	34.4	1.15	10.6	0.389	> 100	1.62	20	5.33	29.5	6.44	49.8
C=C1C(=O)O[C@H]2C[C@@H]1CC/C(C)=C/CC/C(C)=C/CC[C@@]2(C)O	35	> 100	46.7	> 100	25.7	53.7	53	> 100	> 100	> 100	19.5	42.7	20	50.2	> 100	> 100	> 100	> 100	> 100	> 100
Cc1ccc(NC(=O)c2cc3ccccc3c(N=Nc3cc(S(=O)(=O)O)ccc3O)c2O)c(C)c1		> 100		78.5		> 100		> 100		80.9		> 100		> 100		53.9		> 100		> 100
